1 compound from patent US9011863B2, “Combinations of kinase inhibitors for the treatment of cancer” (Exelixis, Inc., priority 2010, dated 2015) can be followed below.

Test [1] relates to HER3, pHER3^Y1289, pAKT^S473. Nature of the test: immunohistochemistry of BT474 xenografts. It is filed as in vivo, mice. The following applies: day 28. How it is done: FIG. 18B depicts photomicrographs of immunohistochemistry sections from formalin-fixed, paraffin-embedded tumor blocks. Xenografts were harvested on day 28, 1 hour after the last dose of lapatinib and/or compound A. Antibodies used were against HER3, pHER3^Y1289, and pAKT^S473. Photographs were taken at 400× magnification (scale bar: 50 μm).
All tumor samples (collected within 1 hour of last treatment) were fixed in 10% neutral buffered formalin for 24 hours at room temperature, followed by dehydration and paraffin embedding. Immunostaining was done on 5-μm tissue sections. After deparaffinization in xylene and graded alcohols heat-induced antigen retrieval was performed in a pH 6.0 citrate buffer followed by incubation with 3% hydrogen peroxide for 20 minutes, with protein block (Dako) for 10 minutes, and finally with primary antibody overnight at 4° C. The Envision Visualization System (Dako, Carpinteria, Calif., USA) was used, followed by DAB as chromagen and counterstained with hematoxylin. Tumor sections were studied on a light microscope with an ocular magnification of 400 times. Average percentage and intensity of tumor cell staining was calculated as a histoscore (H-score) (as described in Goulding, H., et al. (1995), Hum. Pathol. 26:291-294, which is incorporated herein by reference in its entirety). An expert pathologist (MGK) scoring the sections was blinded to the type of treatment.
Using immunohistochemistry (IHC), experiments were performed to examine pharmacodynamic biomarkers of target inactivation in xenografts after 28 days of treatment. […] Therefore, experiments were performed to quantify differences in pAKT^S473 expression in both cytoplasmic and nuclear compartments in xenograft sections.

A further test concerns HER3 protein. The experiment in a line: half-life of the HER3 protein with cycloheximide. The test is classed as cell-based, human. The following applies: BT474 cells. The procedure:
The half-life of the HER3 protein in absence and presence of compound A was determined using cycloheximide, an inhibitor of protein synthesis. […] Next the levels of HER3 mRNA was examined by qPCR upon inhibition of PI3K over a time course using the approximate IC50 of compound A (6 μM).

In test [2] the test system is p85-associated pTyr proteins in BT474 cells. The experiment in a line: p85 immunoprecipitation with pTyr / HER3 immunoblot. It is filed as cell-based, human. To be noted: BT474, 0-20 μM, 24 hours. How it is done: FIG. 13C depicts a photomicrrograph of immunoblots of cell lysates from BT474 cells which were treated with 0-20 μM compound A for 24 hours. Cells were then lysed, and 0.5 mg of lysate subjected to immunoprecipitation (IP) with a p85 antibody followed by p85 and pTyr.
FIG. 13D depicts a photomicrrograph of immunoblots of cell lysates from BT474 cells which were treated with 0-20 μM compound A for 24 hours. Cells were then lysed, and 0.5 mg of lysate subjected to immunoprecipitation (IP) with a p85 antibody followed by p85 and HER3.
Immunoprecipitation, immunoblotting, and RTK assays were performed according to published methods. […] Immunoreactive signals were detected by enhanced chemilluminsecence (Pierce, Rockford, Ill., USA). […]
In HER2 overexpressing cells, although not bound by any particular theory, it is believed that the main mechanism of activation of PI3K is the coupling of pHER3 to an SH2 domain in the N-terminus of p85, the regulatory subunit of PI3K. […] Consistent with previous studies, the p85-associated approximately 200-kDa band was also detected with HER3 and pHER3^Y1197 antibodies as shown in FIGS. 13D and 13F. […]
A general note: A western blot detects proteins with antibodies after separation by electrophoresis.

Test [3] deals with human breast cancer cell lines. The experiment in a line: three-dimensional (3D) growth in Matrigel. The test is classed as cell-based. To be noted: 3D Matrigel, 2.5% FBS, read-out: IC50 in cells tested in 3D. How it is done:
Cells were seeded in 8-well chamber slides in growth-factor reduced Matrigel (BD Biosciences, San Jose Calif., USA)±compound A according to published methods. Fresh medium and drugs were replenished every third day. Colonies were photographed with an inverted light microscope with an ocular magnification of 10 times on the days recited in figures herein.
A panel of breast cancer cell lines with dysregulated PI3K activity was treated with increasing doses of compound A under two- and three-dimensional (2D and 3D) growth conditions. All experiments were conducted in 2.5% FBS-containing media, unless otherwise stated. […] This was further confirmed by immunoblot analysis of biomarkers of cell death and G1-S cell cycle transition in lysates from cells treated for 24 hours with compound A as shown in FIG. 10B.

Another test deals with FoxO1 and FoxO3a. The experiment in a line: cytoplasmic and nuclear fractionation, FoxO immunoblot. It is filed as cell-based, human. The following applies: BT474 and MDA453; 6 μM compound A or 2 μM 5J8; 4 hours.

Procedure for FoxO1 and FoxO3a: Nuclear (Nu) and cytoplasmic (Cy) extracts were isolated and subjected to immunoblotting with FoxO1 and FoxO3a antibodies. Loading controls for Nu: HDAC3; for Cy: RhoA (BT474) and MEK1/2 (MDA453).
Cytoplasmic and nuclear extracts were prepared using the Nuclear Extract Kit from Active Motif. Briefly, cells were plated in 100-mm dishes, treated with inhibitors at the indicated concentrations for 3-4 hours, washed with ice-cold PBS/phosphatase inhibitors, lysed in hypotonic buffer and centrifuged for 30 seconds at 14,000 rpm at 4° C. to collect the supernatant (cytoplasmic extract). The pellet (nuclear fraction) was resuspended in complete lysis buffer and centrifuged for 10 minutes at 14,000 rpm at 4° C. to collect the supernatant (nuclear fraction).

Take `COc1ccc(Cl)c(Nc2nc3ccccc3nc2NS(=O)(=O)c2cccc(NC(=O)C(C)(C)N)c2)c1` [Compound A]: in test [1], the “nuclear pAKT^S473 by IHC” value is recorded as “statistically inhibited nuclear pAKT levels” and the “pHER3 by IHC” value is reported as “did not reduce membrane pHER3”. Also, the “rate of decay of the HER3 protein” value with HER3 protein is given as “not significantly altered”. For the same compound, in test [2], the “p85-associated pTyr band” value is reported as “dose-dependent increase of approximately 200-kDa main pTyr band”. Besides, the IC50 in test [3] was not above 6 µM. The “subcellular distribution of FoxO1 and FoxO3a” value in the test with FoxO1 and FoxO3a was “accumulation of both FoxO factors in the nucleus of BT474 and MDA453 cells”.

The term IC50 denotes the concentration needed to halve the response being measured.
